Data on 33 compounds can be found in patent publication US20090105305A1, “Therapeutic Agents - 550” (AstraZeneca AB, priority 2006, published 2009).

What is called inhibition is how much of the control response was suppressed. The term IC50 denotes the concentration needed to halve the response being measured. A lower IC50 goes with greater potency in that assay.

The structures appear in SMILES notation.

T1 sequence (P49327 whole entry): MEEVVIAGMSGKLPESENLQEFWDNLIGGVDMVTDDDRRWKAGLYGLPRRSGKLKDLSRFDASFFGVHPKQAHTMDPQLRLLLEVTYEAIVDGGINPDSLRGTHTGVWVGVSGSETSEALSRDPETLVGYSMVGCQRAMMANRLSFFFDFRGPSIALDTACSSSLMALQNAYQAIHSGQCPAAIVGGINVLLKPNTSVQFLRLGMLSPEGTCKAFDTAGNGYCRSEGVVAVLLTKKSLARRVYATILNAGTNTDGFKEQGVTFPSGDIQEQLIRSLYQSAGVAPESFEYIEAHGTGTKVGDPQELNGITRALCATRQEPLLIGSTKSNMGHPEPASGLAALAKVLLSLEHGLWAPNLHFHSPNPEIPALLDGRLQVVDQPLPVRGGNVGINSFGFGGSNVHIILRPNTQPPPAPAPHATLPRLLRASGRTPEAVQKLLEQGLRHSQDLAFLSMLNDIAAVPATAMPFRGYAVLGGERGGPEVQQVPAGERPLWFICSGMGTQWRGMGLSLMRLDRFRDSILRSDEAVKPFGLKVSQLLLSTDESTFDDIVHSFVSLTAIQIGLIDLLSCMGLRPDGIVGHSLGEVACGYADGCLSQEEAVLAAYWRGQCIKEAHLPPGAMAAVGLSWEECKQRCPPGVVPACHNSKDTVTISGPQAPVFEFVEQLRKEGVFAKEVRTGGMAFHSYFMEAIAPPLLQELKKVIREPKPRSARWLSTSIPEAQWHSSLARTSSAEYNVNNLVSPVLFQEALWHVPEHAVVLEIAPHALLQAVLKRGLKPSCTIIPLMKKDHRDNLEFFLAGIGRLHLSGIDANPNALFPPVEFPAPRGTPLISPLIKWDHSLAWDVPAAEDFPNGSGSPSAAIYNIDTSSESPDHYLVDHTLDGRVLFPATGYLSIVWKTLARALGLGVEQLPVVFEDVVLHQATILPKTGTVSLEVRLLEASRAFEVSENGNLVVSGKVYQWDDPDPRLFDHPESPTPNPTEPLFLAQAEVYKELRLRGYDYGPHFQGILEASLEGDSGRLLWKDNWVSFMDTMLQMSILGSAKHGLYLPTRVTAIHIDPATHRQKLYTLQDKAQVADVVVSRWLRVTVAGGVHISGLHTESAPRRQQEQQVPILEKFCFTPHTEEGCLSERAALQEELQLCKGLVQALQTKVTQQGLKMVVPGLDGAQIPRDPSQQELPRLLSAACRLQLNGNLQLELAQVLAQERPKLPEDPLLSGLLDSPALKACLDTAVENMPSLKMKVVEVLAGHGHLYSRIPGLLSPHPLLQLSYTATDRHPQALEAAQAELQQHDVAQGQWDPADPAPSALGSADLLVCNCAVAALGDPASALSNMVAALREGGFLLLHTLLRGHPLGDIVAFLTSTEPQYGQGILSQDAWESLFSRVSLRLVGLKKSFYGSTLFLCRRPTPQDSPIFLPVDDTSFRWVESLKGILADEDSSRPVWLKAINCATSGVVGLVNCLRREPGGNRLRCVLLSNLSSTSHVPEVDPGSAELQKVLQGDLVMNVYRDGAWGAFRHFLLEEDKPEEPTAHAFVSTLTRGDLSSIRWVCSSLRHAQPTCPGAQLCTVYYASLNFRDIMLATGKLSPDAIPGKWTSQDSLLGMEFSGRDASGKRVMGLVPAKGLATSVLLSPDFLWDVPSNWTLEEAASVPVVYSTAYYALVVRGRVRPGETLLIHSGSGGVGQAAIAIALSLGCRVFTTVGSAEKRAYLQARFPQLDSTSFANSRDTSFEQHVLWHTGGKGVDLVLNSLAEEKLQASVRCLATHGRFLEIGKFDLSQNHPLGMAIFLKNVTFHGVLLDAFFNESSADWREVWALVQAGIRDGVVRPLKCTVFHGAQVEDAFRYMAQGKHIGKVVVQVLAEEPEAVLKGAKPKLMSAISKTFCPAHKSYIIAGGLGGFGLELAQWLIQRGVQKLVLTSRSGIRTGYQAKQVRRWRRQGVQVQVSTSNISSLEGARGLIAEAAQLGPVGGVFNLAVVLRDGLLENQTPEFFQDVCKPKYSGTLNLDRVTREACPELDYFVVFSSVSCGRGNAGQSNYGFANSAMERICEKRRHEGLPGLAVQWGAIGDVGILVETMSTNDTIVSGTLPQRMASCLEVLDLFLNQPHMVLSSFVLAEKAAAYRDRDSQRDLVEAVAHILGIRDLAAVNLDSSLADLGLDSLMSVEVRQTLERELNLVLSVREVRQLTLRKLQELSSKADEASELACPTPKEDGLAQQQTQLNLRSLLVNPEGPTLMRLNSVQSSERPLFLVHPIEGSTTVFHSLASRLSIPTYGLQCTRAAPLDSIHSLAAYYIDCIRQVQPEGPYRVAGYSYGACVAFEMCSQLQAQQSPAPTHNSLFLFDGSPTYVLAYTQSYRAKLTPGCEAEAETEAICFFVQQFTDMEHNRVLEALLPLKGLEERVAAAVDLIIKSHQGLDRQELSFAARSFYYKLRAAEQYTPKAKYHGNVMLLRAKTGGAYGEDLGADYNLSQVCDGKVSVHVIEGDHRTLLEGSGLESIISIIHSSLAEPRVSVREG

One test addresses T1, human Fatty Acid Synthase (Homo sapiens, UniProt P49327).
T1 construct: made in house
Kind of test: Human FAS enzyme assay (decrease in NADPH fluorescence). The note with it: % inhibition at a concentration of 100 micromolar. Type of test: biochemical. In short, it runs like this: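 In-house human FAS (0.4 μg) was preincubated 15 min at RT with compound and NADPH (added at 166.6 μM) in 0.1 M Tris pH 7.5, 1 mM glutathione, 0.05% BSA. Malonyl-/acetyl-CoA (500/150 μM in substrate mix) was then added for 60 min. Readout was NADPH fluorescence loss (ex 340/em 460) over a time-zero read, with IC50 from a sigmoid fit.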
For the compound `COC(=O)c1ccccc1S(=O)(=O)Nc1cc(C(=O)N2CCC(c3ccc(C#N)cc3)CC2)ccc1C` [Example 108, methyl 2-[[5-[4-(4-cyanophenyl)piperidine-1-carbonyl]-2-methyl-phenyl]sulfamoyl]benzoate], the inhibition at 100 µM turned out to be 78%.

`Cc1ccc(C(=O)N2CCC(c3ccc(C#N)cc3)CC2)cc1NS(=O)(=O)CCCNS(=O)(=O)C(C)C` [Example 131, N-[5-[4-(4-cyanophenyl)piperidine-1-carbonyl]-2-methyl-phenyl]-3-(propan-2-ylsulfonylamino)propane-1-sulfonamide] returned an inhibition at 100 µM of 91%.

Compound `Cc1ccc(C(=O)N2CCC(c3ccc(C(N)=NO)cc3)CC2)cc1NS(C)(=O)=O` [Example 214, N′-hydroxy-4-[1-(3-methanesulfonamido-4-methylbenzoyl)piperidin-4-yl]benzene-carboximidamide] registered an inhibition at 100 µM of 85%.

Turning to `Cc1ccc(C(=O)N2CCC(c3ccc(C#N)cc3)CC2)cc1NS(=O)(=O)C1CCS(=O)(=O)C1` (stereo not drawn) [Example 127, N-[5-[4-(4-cyanophenyl)piperidine-1-carbonyl]-2-methyl-phenyl]-1,1-dioxo-thiolane-3-sulfonamide], testing at 100 µM gave an inhibition of 92%.

`C#Cc1ccc(C2CCN(C(=O)c3ccc(C)c(NS(C)(=O)=O)c3)CC2)cc1` [Example 172, N-[5-[4-(4-ethynylphenyl)piperidine-1-carbonyl]-2-methylphenyl]methanesulfonamide]: 100 µM produced 85% inhibition.

As for `CCS(=O)(=O)Nc1cc(C(=O)N2CCC(c3ccc(C#N)cc3)CC2)ccc1C` [Example 11, N-[5-[4-(4-cyanophenyl)piperidine-1-carbonyl]-2-methyl-phenyl]ethanesulfonamide], at 100 µM the inhibition was 88%.

`Cc1ccc(C(=O)N2CCC(c3ccc(C#N)cc3)CC2)cc1NS(=O)(=O)c1ccccc1F` [Example 2, N-[5-[4-(4-cyanophenyl)piperidine-1-carbonyl]-2-methyl-phenyl]-2-fluoro-benzenesulfonamide] came in with an inhibition at 100 µM of 82%.

The compound `Cc1ccc(C(=O)N2CCC(c3ccc(C#N)cc3)CC2)cc1NS(=O)(=O)c1ccc(=O)[nH]c1` [Example 102, N-[5-[4-(4-cyanophenyl)piperidine-1-carbonyl]-2-methyl-phenyl]-6-oxo-1H-pyridine-3-sulfonamide] came in with an inhibition at 100 µM of 81%.

Turning to `Cc1ccc(NS(=O)(=O)CC2CCCCC2)cc1C(=O)N1CCC(c2ccc(C#N)cc2)CC1` [Example 41, N-[3-[4-(4-cyanophenyl)piperidine-1-carbonyl]-4-methyl-phenyl]-1-cyclohexyl-methanesulfonamide], the inhibition at 100 µM worked out at 96%.

In turn, `Cc1ccc(C(=O)N2CCC(c3ccc(C#N)cc3)CC2)cc1NS(=O)(=O)CC(=O)N1CCOCC1` [Example 88, N-[5-[4-(4-cyanophenyl)piperidine-1-carbonyl]-2-methyl-phenyl]-2-morpholin-4-yl-2-oxo-ethanesulfonamide] returned an inhibition at 100 µM of 89%.

The compound `Cc1ccc(C(=O)N2CCC(c3ccc(CS(C)(=O)=O)cc3)CC2)cc1NS(C)(=O)=O` [Example 223, N-[2-methyl-5-[4-[4-(methylsulfonylmethyl)phenyl]piperidine-1-carbonyl]phenyl]-methanesulfonamide] displayed an inhibition at 100 µM of 74%.

As for `Cc1ccc(C(=O)N2CCC(c3ccc(-c4cnccn4)cc3)CC2)cc1NS(C)(=O)=O` [Example 174, N-[2-methyl-5-[4-(4-pyrazin-2-ylphenyl)piperidine-1-carbonyl]phenyl]methanesulfonamide], 100 µM produced 92% inhibition.

`CCc1ccc(C(=O)N2CCC(c3ccc(C#N)cc3)CC2)cc1NS(=O)(=O)C1CCS(=O)(=O)C1` (stereo not drawn) [Example 124, N-[5-[4-(4-cyanophenyl)piperidine-1-carbonyl]-2-ethyl-phenyl]-1,1-dioxo-thiolane-3-sulfonamide] came in with an inhibition at 100 µM of 82%.

`Cc1ccc(C(=O)N2CCC(c3ccc(C#N)cc3)CC2)cc1NS(=O)(=O)C1CCNCC1` [Example 115, N-[5-[4-(4-cyanophenyl)piperidine-1-carbonyl]-2-methyl-phenyl]piperidine-4-sulfonamide] had an inhibition at 100 µM of 97%.

`Cc1ccc(C(=O)N2CCC(c3ccc(C#N)cc3)CC2)cc1NS(=O)(=O)Cc1ccccc1` [Example 4, N-[5-[4-(4-cyanophenyl)piperidine-1-carbonyl]-2-methyl-phenyl]-1-phenyl-methanesulfonamide] showed an inhibition at 100 µM of 81%.

Compound `CS(=O)(=O)Nc1cc(C(=O)N2CCC(c3ccc(C#N)cc3)CC2)ccc1S(C)(=O)=O` [Example 210, N-[5-[4-(4-cyanophenyl)piperidine-1-carbonyl]-2-methylsulfonylphenyl]methanesulfonamide] returned an inhibition at 100 µM of 91%.

Regarding `CS(=O)(=O)Nc1cccc(C(=O)N2CCC(c3ccc(C#N)cc3)CC2)c1` [Example 203, N-[3-[4-(4-cyanophenyl)piperidine-1-carbonyl]phenyl]methanesulfonamide], 100 µM produced 71% inhibition.

The compound `CNCCCS(=O)(=O)Nc1cc(C(=O)N2CCC(c3ccc(C#N)cc3)CC2)ccc1C` [Example 75, N-[5-[4-(4-cyanophenyl)piperidine-1-carbonyl]-2-methyl-phenyl]-3-methylamino-propane-1-sulfonamide] had an inhibition at 100 µM of 93%.

`CSc1ccc(C(=O)N2CCC(c3ccc(C#N)cc3)CC2)cc1NS(C)(=O)=O` [Example 159, N-[5-[4-(4-cyanophenyl)piperidine-1-carbonyl]-2-methylsulfanylphenyl]methanesulfonamide] yielded an inhibition at 100 µM of 80%.

The compound `CNC(=O)c1cccc(S(=O)(=O)Nc2cc(C(=O)N3CCC(c4ccc(C#N)cc4)CC3)ccc2C)c1` [Example 83, 3-[[5-[4-(4-cyanophenyl)piperidine-1-carbonyl]-2-methyl-phenyl]sulfamoyl]-N-methyl-benzamide] displayed an inhibition at 100 µM of 98%.

On to `Cc1ccc(NS(=O)(=O)c2ccccc2)cc1C(=O)N1CCC(c2ccc(C#N)cc2)CC1` [Example 35, N-[3-[4-(4-cyanophenyl)piperidine-1-carbonyl]-4-methyl-phenyl]benzenesulfonamide], for which testing at 100 µM gave an inhibition of 89%.

In turn, `CCCCS(=O)(=O)Nc1ccc(C)c(C(=O)N2CCC(c3ccc(C#N)cc3)CC2)c1` [Example 37, N-[3-[4-(4-cyanophenyl)piperidine-1-carbonyl]-4-methyl-phenyl]butane-1-sulfonamide] showed an inhibition at 100 µM of 91%.

For the compound `Cc1ccc(C(=O)N2CCC(c3ccc(C#N)cc3)CC2)cc1NS(=O)(=O)c1ccccc1C(=O)NC(C)C` [Example 208, 2-[[5-[4-(4-cyanophenyl)piperidine-1-carbonyl]-2-methylphenyl]sulfamoyl]-N-propan-2-ylbenzamide], the inhibition at 100 µM was found to be 75%.

The compound `CCCC(=O)NCc1ccc(C2CCN(C(=O)c3ccc(C)c(NS(C)(=O)=O)c3)CC2)cc1` [Example 235, N-[[4-[1-(3-methanesulfonamido-4-methylbenzoyl)piperidin-4-yl]phenyl]methyl]butanamide] gave an inhibition at 100 µM of 72.8%.

`Cc1ccc(NS(=O)(=O)C2CCS(=O)(=O)C2)cc1C(=O)N1CCC(c2ccc(C#N)cc2)CC1` (stereo not drawn) [Example 69, N-[3-[4-(4-cyanophenyl)piperidine-1-carbonyl]-4-methyl-phenyl]-1,1-dioxo-thiolane-3-sulfonamide] had an inhibition at 100 µM of 82%.

With `Cc1ccc(C(=O)N2CCC(c3ccc(C#N)cc3)CC2)cc1NS(=O)(=O)CCCCl` [Example 9, 3-chloro-N-[5-[4-(4-cyanophenyl)piperidine-1-carbonyl]-2-methyl-phenyl]propane-1-sulfonamide], the inhibition at 100 µM was 95%.

`Cc1ccc(C(=O)N2CCC(c3ccc(C#N)cc3)CC2)cc1NS(=O)(=O)c1cnoc1C` [Example 95, N-[5-[4-(4-cyanophenyl)piperidine-1-carbonyl]-2-methyl-phenyl]-5-methyl-1,2-oxazole-4-sulfonamide] returned an inhibition at 100 µM of 73%.

The compound `Cc1ccc(C(=O)N2CCC(c3ccc(C#N)cc3)CC2)cc1NS(=O)(=O)CCCNC(=O)c1ccccc1` [Example 133, N-[3-[[5-[4-(4-cyanophenyl)piperidine-1-carbonyl]-2-methyl-phenyl]sulfamoyl]propyl]benzamide] showed an inhibition at 100 µM of 91%.

The same test, now with this note: compounds excluded from the claims by proviso.
On to `CNC(=O)c1ccccc1S(=O)(=O)Nc1cc(C(=O)N2CCC(c3ccc(C#N)cc3)CC2)ccc1C` [2-[[5-[4-(4-cyanophenyl)piperidine-1-carbonyl]-2-methylphenyl]sulfamoyl]-N-methylbenzamide], for which the “IC50s in the range of about 0.001 μM to about 30 μM” value (from here on “IC50s in the range”) is “do not have IC50s in the range of about 0.001 μM to about 30 μM”.

Turning to `CS(=O)(=O)Cc1ccc(C(=O)N2CCC(c3ccc(C#N)cc3)CC2)cc1NS(C)(=O)=O` [N-[5-[4-(4-cyanophenyl)piperidine-1-carbonyl]-2-(methylsulfonylmethyl)phenyl]methanesulfonamide], the “IC50s in the range” value was “do not have IC50s in the range of about 0.001 μM to about 30 μM”.

With `Cc1ccc(C(=O)N2CCC(c3ccc(C#CC(C)(C)N)cc3)CC2)cc1NS(C)(=O)=O` [N-[5-[4-[4-(3-amino-3-methylbut-1-ynyl)phenyl]piperidine-1-carbonyl]-2-methylphenyl]methanesulfonamide], the “IC50s in the range” value is “do not have IC50s in the range of about 0.001 μM to about 30 μM”.

Regarding `Cc1ccc(C(=O)N2CCC(c3ccc(N4CCCC4=O)cc3)CC2)cc1NS(C)(=O)=O` [N-[2-methyl-5-[4-[4-(2-oxopyrrolidin-1-yl)phenyl]piperidine-1-carbonyl]phenyl]methanesulfonamide], the “IC50s in the range” value is listed as “do not have IC50s in the range of about 0.001 μM to about 30 μM”.

Still in this test, the particulars now being: unit inferred.
As for `CNC(=O)CCc1ccc(C2CCN(C(=O)c3ccc(C)c(NS(C)(=O)=O)c3)CC2)cc1` [Example 248, 3-[4-[1-(3-methanesulfonamido-4-methylbenzoyl)piperidin-4-yl]phenyl]-N-methylpropanamide], the IC50 amounted to 405 nM.
